From ChEMBL document CHEMBL1158892, “Cationic reduction of bastadin-4 to bastadin-5. Preparation of 5-[2h]-bastadin-5 by site-specific isotopic labeling” (J Nat Prod, 2003) come the findings set out here.

The experiment deals with Ryanodine receptor 1 (Homo sapiens) (UniProt P21817). Nature of the experiment: Displacement of [3H]ryanodine from RyR1 calcium channel in sarcoplasmic reticulum assessed as calcium mobilization. A general note: Displacement assays read how much labelled ligand stays bound in the presence of the test substance.
Chain of Ryanodine receptor 1 (Homo sapiens) (P21817 whole entry): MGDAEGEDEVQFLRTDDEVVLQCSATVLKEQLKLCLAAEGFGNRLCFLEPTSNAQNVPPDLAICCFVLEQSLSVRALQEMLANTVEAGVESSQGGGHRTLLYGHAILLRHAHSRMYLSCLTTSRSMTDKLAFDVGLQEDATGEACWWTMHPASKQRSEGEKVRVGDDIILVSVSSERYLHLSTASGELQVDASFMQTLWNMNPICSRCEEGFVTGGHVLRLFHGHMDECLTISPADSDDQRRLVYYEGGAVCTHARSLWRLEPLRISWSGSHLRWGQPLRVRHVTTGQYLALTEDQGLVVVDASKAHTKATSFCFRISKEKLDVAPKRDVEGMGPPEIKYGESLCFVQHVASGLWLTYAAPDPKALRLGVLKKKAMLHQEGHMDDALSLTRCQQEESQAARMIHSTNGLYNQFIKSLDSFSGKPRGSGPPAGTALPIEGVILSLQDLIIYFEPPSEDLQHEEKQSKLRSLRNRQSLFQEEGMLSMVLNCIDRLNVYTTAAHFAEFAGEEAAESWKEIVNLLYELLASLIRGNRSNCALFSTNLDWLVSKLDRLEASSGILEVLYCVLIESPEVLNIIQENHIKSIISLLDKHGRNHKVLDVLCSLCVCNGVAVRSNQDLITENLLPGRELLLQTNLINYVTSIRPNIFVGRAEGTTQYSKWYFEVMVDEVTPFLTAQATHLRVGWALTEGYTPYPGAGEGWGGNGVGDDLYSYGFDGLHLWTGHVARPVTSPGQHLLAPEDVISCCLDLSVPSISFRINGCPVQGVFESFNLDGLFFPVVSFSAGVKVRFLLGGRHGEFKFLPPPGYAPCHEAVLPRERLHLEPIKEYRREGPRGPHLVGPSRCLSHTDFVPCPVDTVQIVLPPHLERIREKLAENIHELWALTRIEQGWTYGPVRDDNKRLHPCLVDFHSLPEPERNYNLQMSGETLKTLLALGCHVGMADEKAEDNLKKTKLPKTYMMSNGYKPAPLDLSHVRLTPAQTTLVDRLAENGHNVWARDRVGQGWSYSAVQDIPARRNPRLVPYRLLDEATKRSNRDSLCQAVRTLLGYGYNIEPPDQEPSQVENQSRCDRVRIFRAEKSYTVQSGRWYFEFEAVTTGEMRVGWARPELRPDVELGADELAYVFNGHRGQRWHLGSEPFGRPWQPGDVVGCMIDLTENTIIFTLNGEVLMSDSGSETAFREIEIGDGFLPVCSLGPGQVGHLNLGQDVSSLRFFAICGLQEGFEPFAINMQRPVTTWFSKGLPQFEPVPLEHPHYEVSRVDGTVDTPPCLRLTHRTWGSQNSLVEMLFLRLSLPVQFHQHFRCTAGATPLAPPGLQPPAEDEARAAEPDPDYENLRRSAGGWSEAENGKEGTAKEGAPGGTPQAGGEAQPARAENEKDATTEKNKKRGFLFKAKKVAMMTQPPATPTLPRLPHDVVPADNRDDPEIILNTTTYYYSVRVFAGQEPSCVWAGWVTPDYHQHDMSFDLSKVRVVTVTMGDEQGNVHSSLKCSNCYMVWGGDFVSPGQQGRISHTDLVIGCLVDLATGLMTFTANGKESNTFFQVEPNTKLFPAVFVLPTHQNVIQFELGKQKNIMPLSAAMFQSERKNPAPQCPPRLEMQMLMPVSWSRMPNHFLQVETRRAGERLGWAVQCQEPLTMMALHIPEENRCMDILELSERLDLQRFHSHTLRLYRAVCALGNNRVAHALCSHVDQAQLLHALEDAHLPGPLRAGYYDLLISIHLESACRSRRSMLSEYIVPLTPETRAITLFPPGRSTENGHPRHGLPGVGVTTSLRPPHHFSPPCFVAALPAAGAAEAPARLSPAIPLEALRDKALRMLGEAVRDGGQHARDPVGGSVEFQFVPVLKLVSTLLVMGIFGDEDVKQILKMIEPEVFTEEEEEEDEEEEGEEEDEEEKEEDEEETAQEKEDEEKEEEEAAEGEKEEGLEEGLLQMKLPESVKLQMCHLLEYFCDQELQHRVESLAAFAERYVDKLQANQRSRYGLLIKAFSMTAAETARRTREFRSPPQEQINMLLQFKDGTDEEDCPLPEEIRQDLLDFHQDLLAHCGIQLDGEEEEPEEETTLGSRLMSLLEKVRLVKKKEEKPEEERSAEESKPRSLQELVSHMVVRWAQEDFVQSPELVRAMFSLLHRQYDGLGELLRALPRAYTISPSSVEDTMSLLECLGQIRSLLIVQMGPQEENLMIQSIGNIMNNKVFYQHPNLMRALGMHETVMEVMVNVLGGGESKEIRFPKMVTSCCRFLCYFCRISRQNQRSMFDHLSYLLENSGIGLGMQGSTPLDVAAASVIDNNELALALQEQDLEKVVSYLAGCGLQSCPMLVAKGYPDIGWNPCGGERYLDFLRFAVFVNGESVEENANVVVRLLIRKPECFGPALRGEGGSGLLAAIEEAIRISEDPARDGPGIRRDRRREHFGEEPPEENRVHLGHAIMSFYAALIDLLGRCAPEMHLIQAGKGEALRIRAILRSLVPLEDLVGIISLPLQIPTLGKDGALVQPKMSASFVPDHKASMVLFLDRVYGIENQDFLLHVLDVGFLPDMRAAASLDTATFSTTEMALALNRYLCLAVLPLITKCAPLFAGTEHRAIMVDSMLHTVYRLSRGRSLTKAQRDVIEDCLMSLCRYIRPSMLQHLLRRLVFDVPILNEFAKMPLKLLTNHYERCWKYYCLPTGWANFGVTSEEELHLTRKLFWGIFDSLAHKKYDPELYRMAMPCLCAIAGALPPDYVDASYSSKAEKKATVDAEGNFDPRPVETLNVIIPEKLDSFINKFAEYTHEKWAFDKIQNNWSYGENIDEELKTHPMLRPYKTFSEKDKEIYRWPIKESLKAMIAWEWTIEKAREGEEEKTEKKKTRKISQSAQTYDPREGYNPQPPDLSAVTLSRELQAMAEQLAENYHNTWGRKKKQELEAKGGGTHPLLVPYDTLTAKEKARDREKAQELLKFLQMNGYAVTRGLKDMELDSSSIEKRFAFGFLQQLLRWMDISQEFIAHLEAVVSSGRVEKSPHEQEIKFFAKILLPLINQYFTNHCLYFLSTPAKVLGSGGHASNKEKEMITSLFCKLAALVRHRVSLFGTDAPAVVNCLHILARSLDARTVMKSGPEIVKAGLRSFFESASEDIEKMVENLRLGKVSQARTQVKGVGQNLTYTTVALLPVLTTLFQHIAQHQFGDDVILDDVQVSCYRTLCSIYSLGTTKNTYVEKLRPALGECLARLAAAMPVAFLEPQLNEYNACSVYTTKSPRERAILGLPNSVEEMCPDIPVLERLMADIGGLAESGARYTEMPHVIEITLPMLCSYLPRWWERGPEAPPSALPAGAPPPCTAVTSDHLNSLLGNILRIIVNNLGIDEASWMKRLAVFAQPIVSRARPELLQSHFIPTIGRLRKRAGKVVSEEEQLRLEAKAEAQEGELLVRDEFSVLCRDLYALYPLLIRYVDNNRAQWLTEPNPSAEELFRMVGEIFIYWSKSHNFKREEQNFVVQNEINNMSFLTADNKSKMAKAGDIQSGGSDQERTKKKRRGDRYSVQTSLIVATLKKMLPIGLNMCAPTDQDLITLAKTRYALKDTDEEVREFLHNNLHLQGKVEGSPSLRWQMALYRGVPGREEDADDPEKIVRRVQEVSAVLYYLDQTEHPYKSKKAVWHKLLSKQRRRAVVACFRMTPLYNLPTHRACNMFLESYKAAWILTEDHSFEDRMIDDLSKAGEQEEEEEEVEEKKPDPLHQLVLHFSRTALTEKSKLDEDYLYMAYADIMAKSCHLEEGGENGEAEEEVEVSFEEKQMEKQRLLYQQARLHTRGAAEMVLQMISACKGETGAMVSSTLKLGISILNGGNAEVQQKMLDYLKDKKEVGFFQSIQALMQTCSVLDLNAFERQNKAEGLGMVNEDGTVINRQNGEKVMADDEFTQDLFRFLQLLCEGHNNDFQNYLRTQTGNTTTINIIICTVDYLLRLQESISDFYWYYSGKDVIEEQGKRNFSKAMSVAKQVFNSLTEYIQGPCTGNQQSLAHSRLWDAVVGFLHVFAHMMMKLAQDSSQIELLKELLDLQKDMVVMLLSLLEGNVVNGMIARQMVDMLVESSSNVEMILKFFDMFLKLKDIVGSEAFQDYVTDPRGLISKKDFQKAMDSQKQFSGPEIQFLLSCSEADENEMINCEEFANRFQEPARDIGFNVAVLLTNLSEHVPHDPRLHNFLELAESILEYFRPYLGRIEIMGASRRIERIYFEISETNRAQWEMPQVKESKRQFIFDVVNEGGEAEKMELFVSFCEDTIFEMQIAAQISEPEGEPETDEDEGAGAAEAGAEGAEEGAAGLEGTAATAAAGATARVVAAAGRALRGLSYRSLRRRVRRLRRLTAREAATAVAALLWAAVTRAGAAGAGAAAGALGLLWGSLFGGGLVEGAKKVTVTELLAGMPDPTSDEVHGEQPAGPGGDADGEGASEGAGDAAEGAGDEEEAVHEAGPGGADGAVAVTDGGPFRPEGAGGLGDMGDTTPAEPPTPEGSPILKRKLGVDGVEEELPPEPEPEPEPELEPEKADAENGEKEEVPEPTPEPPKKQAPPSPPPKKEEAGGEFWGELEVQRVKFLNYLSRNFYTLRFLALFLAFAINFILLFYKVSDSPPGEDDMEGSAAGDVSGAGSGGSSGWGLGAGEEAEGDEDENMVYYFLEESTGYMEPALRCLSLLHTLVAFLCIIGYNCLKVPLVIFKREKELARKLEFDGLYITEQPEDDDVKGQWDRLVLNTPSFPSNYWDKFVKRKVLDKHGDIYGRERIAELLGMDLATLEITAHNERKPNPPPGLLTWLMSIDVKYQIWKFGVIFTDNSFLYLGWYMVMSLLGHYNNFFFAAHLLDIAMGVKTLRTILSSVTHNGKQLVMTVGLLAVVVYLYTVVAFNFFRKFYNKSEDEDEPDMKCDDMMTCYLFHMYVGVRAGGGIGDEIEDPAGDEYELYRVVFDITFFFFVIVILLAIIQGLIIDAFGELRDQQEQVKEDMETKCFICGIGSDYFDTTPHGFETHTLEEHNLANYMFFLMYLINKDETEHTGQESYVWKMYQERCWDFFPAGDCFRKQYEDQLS

As to `O=C1NCCc2cc(Br)c(O)c(c2)Oc2ccc(cc2Br)CCNC(=O)/C(=N\O)Cc2cc(Br)c(O)c(c2)Oc2c(Br)cc(cc2Br)C/C1=N/O`, the ED50 stood at 2300 nM.
